Tests used:
[1] = test system: liver mass or hepatic lipid accumulation; settings: 25 mg icariin/kg diet; corresponding to 4 mg/kg body weight/day; cited from earlier work
[2] = test system: HFD-induced hepatic steatosis; assay: Prophylactic treatment concurrent with high fat diet feeding (Examples 6-8); type: in vivo, C57Bl/6 mice; settings: treatments and HFD initiated on the same day, six weeks, doses as Tables 25-27
Procedure: C57Bl/6 mice are assigned to the following experimental groups as depicted in Table 25: Drug treatments and high fat diet feeding (as described in Example 1) are initiated on the same day and are carried out for six weeks. The effects of the treatments and diet on liver mass and hepatic lipid accumulation are assessed as described in the preceding examples. […] C57Bl/6 mice are assigned to the following experimental groups as depicted in Table 26: Drug treatments and high fat diet feeding (as described in Example 1) are initiated on the same day and are carried out for six weeks. The effects of the treatments and diet on liver mass and hepatic lipid accumulation are assessed as described in the preceding examples. […] In this study, the prophylactic effects of sub-therapeutic leucine alone, and co-administration of leucine and the PDE5-specific inhibitor icariin on liver mass and hepatic steatosis are assessed. C57Bl/6 mice are assigned to the following experimental groups as depicted in Table 27: Drug treatments and high fat diet feeding (as described in Example 1) are initiated on the same day and are carried out for six weeks. The effects of the treatments and diet on liver mass and hepatic lipid accumulation are assessed as described in the preceding examples.

[3] = test system: hepatic steatosis (lipid vesicles in liver cells); assay: Histological analysis of hepatic lipid accumulation after high fat diet; settings: Example 3; HFD mice, six weeks; therapeutic metformin; combination: leucine + metformin 0.5 g/kg
Source text: (§1) Chronic high fat diet was used in C57Bl/6 mice as an experimental model of hepatic steatosis. Male C57/BL6 mice were either maintained on standard low-fat diet (control; LFD; 10% energy from fat) or placed on a high fat (HFD; 60% energy from fat, Research Diets #D12492, Research Diets, Inc, New Brunswick, N.J.) at six weeks of age to induce obesity and fatty infiltration of the liver. […] Animals were then randomized to treatments for an additional six weeks, with 10 animals per group, as specified in the following examples.
In this study, the effects of metformin alone (therapeutic dose), subtherapeutic metformin alone, subtherapeutic leucine, and various combinations of leucine, metformin, and resveratrol on liver weight and hepatic lipid accumulation were assessed. The 1.5 g/kg diet of metformin corresponds to a therapeutically effective dose of metformin in humans. […] Likewise, the 24 g/kg dose of leucine represents a sub-therapeutic dose that was predicted to exert no significant independent effects on liver mass or hepatic steatosis. […]
In this study, the effects of metformin alone (therapeutic dose) vs. combination therapy with sub-therapeutic amounts of metformin and leucine on liver weight and hepatic lipid accumulation were assessed. […]

liver triglycerides = settings: Example 3; HFD mice, six weeks; metformin alone 1.5 g/kg diet; combination: leucine + metformin 0.5 g/kg
Source text: as §1
(§2) In this study, the effects of metformin alone (therapeutic dose) vs. combination therapy with sub-therapeutic amounts of metformin and leucine on liver weight and hepatic lipid accumulation were assessed. Following induction of hepatic steatosis as described in Example 1, animals were treated for six weeks according to the following treatment groups as depicted in Table 22:

[4] = test system: high fat diet-induced hepatic steatosis; assay: Liver weight after treatment of high fat diet-induced hepatic steatosis; type: in vivo, C57Bl/6 mice; settings: HFD mice, six weeks, metformin 1.5 g/kg diet
Source text: as §1
In this study, the effects of metformin alone (therapeutic dose), subtherapeutic metformin alone, subtherapeutic leucine, and various combinations of leucine, metformin, and resveratrol on liver weight and hepatic lipid accumulation were assessed. The 1.5 g/kg diet of metformin corresponds to a therapeutically effective dose of metformin in humans. […] Likewise, the 24 g/kg dose of leucine represents a sub-therapeutic dose that was predicted to exert no significant independent effects on liver mass or hepatic steatosis. Following induction of hepatic steatosis as described in Example 1, animals were treated according to the following treatment groups as depicted in Table 21:
as §2

Molecule	Effect on hepatic lipid accumulation [1]	Effect on liver mass [1]	Effect on HFD-induced hepatic lipid accumulation [2]	Effect on HFD-induced increase in liver mass [2]	Effect on hepatic steatosis (histological analysis) [3]	Effect on liver triglycerides (liver triglycerides)	Effect on liver weight ([4]; Example 2, leucine 24 g/kg diet, resveratrol 12.5 mg/kg diet)	Effect on liver weight ([4]; Example 3)	Effect on liver weight ([4]; Example 4)
COc1ccc(-c2oc3c(CC=C(C)C)c(O[C@@H]4O[C@H](CO)[C@@H](O)[C@H](O)[C@H]4O)cc(O)c3c(=O)c2O[C@@H]2O[C@@H](C)[C@H](O)[C@@H](O)[C@H]2O)cc1 [icariin]	no effect	no effect	–	–	–	–	–	–	–
metformin	–	–	attenuates	attenuates	partially reversed hepatic steatosis	partially reversed the effect of high fat diet on liver triglycerides	partially reverse the effect of high fat diet on liver weight	reversed the effect of high fat diet on liver weight back to control levels	reversed the effect of high fat diet on liver weight back to control levels
